Test [1] concerns the target T1, human melanocortin-4 receptor (hMC-4R) (Homo sapiens, UniProt P32245).
T1 construct: expressed in transfected cells; host or cells: HEK293 (membrane preparations)
Kind of test: hMC-4R binding assay (fluorescence polarization, competition with fluorescence labeled NDP-alpha-MSH). The settings on record: HEK293 cell membrane preparations expressing human melanocortin receptors. The protocol: The plate is incubated for 5 h at room temperature.
The degree of fluorescence polarization is determined with a fluorescence polarization microplate reader.
(Fluorescence polarisation rises when a labelled molecule tumbles more slowly, as on binding a larger partner.)

For test [2], the target named is T1, human melanocortin-4 receptor (hMC-4R). In words: hMC-4R functional assay (membrane based cAMP fluorescence polarization). The settings on record: cAMP produced compared to stimulation with NDP-alpha-MSH. More on the design: concentration or dose not given beside the values. The test is classed as biochemical. As for the experimental part:
Agonistic activity of human melanocortin receptors is determined in a homogeneous membrane based assay.
Membrane preparations from HEK293 cells expressing the human melanocortin receptors are added. After a short preincubation period, an appropriate amount of ATP, GTP and the cAMP antibody is added and the plate is further incubated before the fluorescence labeled cAMP conjugate is dispensed. The plate is incubated for 2 h at 4° C. before it is read on a fluorescence polarization microplate reader.

T1 sequence (P32245 whole entry): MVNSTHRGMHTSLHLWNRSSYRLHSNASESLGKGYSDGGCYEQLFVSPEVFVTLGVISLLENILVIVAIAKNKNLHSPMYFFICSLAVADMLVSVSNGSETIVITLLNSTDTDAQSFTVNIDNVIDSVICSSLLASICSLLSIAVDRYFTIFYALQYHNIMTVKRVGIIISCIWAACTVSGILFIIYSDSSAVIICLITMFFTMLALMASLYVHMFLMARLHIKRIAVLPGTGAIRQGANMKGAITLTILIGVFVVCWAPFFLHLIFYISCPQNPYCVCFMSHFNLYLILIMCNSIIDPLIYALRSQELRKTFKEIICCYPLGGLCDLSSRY

Turning to `O=C(N[C@H](Cc1ccc(Cl)cc1Cl)C(=O)N1CCC(c2ccccc2OCCN2CCCC2)CC1)N1CCCC1` [Example 2], the half-maximal inhibitory concentration (IC50) (commonly the concentration that inhibits the measured activity by half) in test [1] stood at 3.7 nM. The “% activation functional assay” value in test [2] was 0%.
For `O=C(N[C@H](Cc1ccc(Cl)cc1Cl)C(=O)N1CCC(c2ccccc2CCN2CCC(F)CC2)CC1)N1CCCC1` [Example 36], in that order: 9.6 nM and 0%.
The compound `O=C(N[C@H](Cc1ccc(Cl)cc1Cl)C(=O)N1CCC(c2ccccc2CCCN2CCCC2)CC1)N1CCOCC1` [Example 95] showed an IC50 in test [1] of 5.3 nM. For the same compound, the “% activation functional assay” value in test [2] is 0%.
Compound `O=C(N[C@H](Cc1ccc(Cl)cc1Cl)C(=O)N1CCC(c2ccccc2OCCN2CCCC2)CC1)N1CCC(F)(F)C1` [Example 110] had an IC50 in test [1] of 4.4 nM. Moreover, the “% activation functional assay” value in test [2] is recorded as 0%.
The like results for `CN(C)[C@H]1CCN(C(=O)N[C@H](Cc2ccc(Cl)cc2Cl)C(=O)N2CCC(c3ccccc3OCCN3CCCC3)CC2)C1` [Example 113] were, in that order, 3 nM and 0%.

The record behind these values is patent publication US20110086836A1, “Substituted Phenylpiperidine Derivatives As Melanocortin-4 Receptor Modulators” (Santhera Pharmaceuticals (Schweiz) AG, priority 2006, published 2011).
